# Test results as given in PMC2228116 (British Journal of Cancer, 1997).
# Several values for one entry are separate records, joined by “and”; a condition that tells them apart may be missing. Equal values may be shown once.
# Legend:
# [1] = in vitro; conditions: male, Wistar, rat, pH 7.4
# Method: (§1) British Joumal of Cancer (1997) 76(9), 1170-1180 ? […] Livers were perfused with 5-FU alone at a dose of 15 mg kg-' body weight or with 5-FU + GW776 at doses of 15 mg 5-FU kg-' body weight and 0.5 mg GW776 kg-' body weight injected 1 h before 5-FU. […] Keywords: 5-fluorouracil; 5-ethynyluracil (GW776); 19F nuclear magnetic resonance; modulation of 5-fluorouracil metabolism; fluoroacetate; 2-fluoro-3-hydroxypropionic acid; isolated perfused rat liver 5-Fluorouracil (5-FU) is one of the most commonly used anti- cancer agents for treatment of solid tumours. Common clinical adverse reactions include myelosuppression, diarrhoea, vomiting and mucositis. […] 5-Ethynyluracil (GW776) is a potent inactivator of the catabolic pathway of 5-FU acting on dihydropyrimidine dehydrogenase (DPD), the enzyme that converts 5-FU into its first catabolite, 5,6-dihydro-5-fluorouracil (FUH2), thereby preserving 5-FU from its rapid and extensive catabolism (Porter et al, 1992; Baccanari et al, 1993; Spector et al, 1993). […] MATERIALS AND METHODS IPRL experiments Livers from male Wistar rats (Iffa Credo, Lyon, France) were isolated and perfused with recirculation of the perfusion medium according to the design originally described by Brauer et al (1951) and modified by Sabouraud et al (1993). The recirculating perfusate (approximately 180 ml), oxygenated with oxygen- carbon dioxide (95%:5%), was a Krebs-Ringer bicarbonate buffer supplemented with glucose (1.3 mM) and bovine serum albumin (0.5%). The perfusate (pH 7.4) was recirculated at a mean flow rate of 10 ml min-1 g-' of liver. The experiments were carried out with solutions of 5-FU prepared immediately before use at a dose of 15 mg kg-' body weight.
# [2] = system: isolated perfused rat liver; experiment: in vitro
# Method: as §1
# [3] = system: isolated perfused rat liver; experiment: Liver viability in IPRL experiments (LDH activity in perfusate, bile flow); conditions: Table 1, text
# Method: as §1, with “The recirculating perfusate (approximately 180 ml), oxygenated with oxygen- carbon dioxide (95%:5%), was a Krebs-Ringer bicarbonate buffer supplemented with glucose (1.3 mM) and bovine serum albumin (0.5%). The perfusate (pH 7.4) was recirculated at a mean flow rate of 10 ml min-1 g-' of liver. The experiments were carried out with solutions of 5-FU prepared immediately before use at a dose of 15 mg kg-' body weight.” left out
# [4] = Control experiments without liver: chemical transformation in perfusate (19F-NMR); type: physicochemical
# [5] = design: method as in Khor et al, 1996; conditions: humans, without GW776; ref Khor et al, 1996; cited from earlier work
# [6] = design: method as in Zhang et al, 1992, 1993; conditions: rats; ref Zhang et al, 1992, 1993; cited from earlier work
# [7] = system: isolated perfused rabbit heart; experiment: Cardiotoxicity on the isolated perfused rabbit heart model; conditions: unpublished data
# [8] = system: DPD; design: method as in Baccanari et al (1993); conditions: 1 h or 6 h after single dose GW776 2 mg kg-1 p.o.; compared with > 96% of this study; ref Baccanari et al (1993); cited from earlier work
# [9] = system: dogs; design: method as in Davis et al (1994); conditions: 26-h continuous infusion of 5-FU at 1.6, 4 or 16 mg kg-1 24 h-1; ref Davis et al (1994); cited from earlier work
# [10] = system: mouse tumour models; design: method as in Baccanari et al, 1993; conditions: ref Baccanari et al, 1993; cited from earlier work
# [11] = system: rat tumour models; design: method as in Cao et al, 1994; conditions: ref Cao et al, 1994; cited from earlier work
# [12] = system: MOPC-315 s.c. tumours; design: method as in Davis et al (1995); conditions: compared with mice treated with 5-FU alone; ref Davis et al (1995); cited from earlier work
# [13] = Table 4, liver acid-insoluble extract
# [14] = FBAL 16.6 mg kg-1 circulated 3 h without liver, after concentration
# [15] = GW776 0.5 mg kg-1 1 h before 5-FU 15 mg kg-1
structure (smiles),measurement,setting,value
"O=c1[nH]cc(F)c(=O)[nH]1 [5-FU, 5-fluorouracil]",recovery,[1],0%
same,"Unmetabolized 5-FU, global recovery",[2],All 5-FU was metabolized
same,"5', 2' and 3' FUMP in acid-insoluble extract",[2]; [13],0 Per cent of Injected dose
same,5-FU in acid-insoluble extract,[2]; [13],0 Per cent of Injected dose
same,5-FU in acid-soluble extract,"[2]; Table 4, liver acid-soluble extract",0 Per cent of Injected dose
same,Total in acid-soluble extract,"[2]; Table 4, liver acid-soluble extract, P<0.01",13 + 4 Per cent of Injected dose and 13 Per cent of Injected dose
same,5-FU in perfusate,"[2]; male, Wistar, rat, pH 7.4",0 Per cent of Injected dose
same,Unmetabolized 5-FU,"[2]; male, Wistar, rat, pH 7.4",0% of injected dose
same,LDH activity compared with control experiments,[3],no significant difference
same,Chemical transformation in perfusate,[4]; perfusate bubbled with carbogen for 3 h at 37 C,not chemically transformed
same,Half-life of 5-FU,[5],approximately 14 min
"NCC(F)C(=O)O (stereo not drawn) [FBAL, alpha-fluoro-beta-alanine]",Adduct of FBAL with a-glucose as share of all the fluorinated compounds detected,[4]; [14],2.4%
same,Adduct of FBAL with beta-glucose as share of all the fluorinated compounds detected,[4]; [14],28.3%
same,CFBAL as share of all the fluorinated compounds detected,[4]; [14],49.6%
same,F- as share of all the fluorinated compounds detected,[4]; [14],1.4%
same,FBAL as share of all the fluorinated compounds detected,[4]; [14],18.3%
same,FBAL signal share,[4]; solution of FBAL in perfusion medium over 3 h,98.9%
same,"Retention in various tissues (mainly liver, heart and brain)",[6],up to 8 days
"O=C(O)C(F)CO (stereo not drawn) [FHPA, 2-fluoro-3-hydroxypropionic acid]",Cardiotoxicity,[7]; 0.01 mg kg-1 (lowest dose),did not generate cardiotoxic symptoms
same,Cardiotoxicity,[7]; 1.5 mg kg-1 (highest dose),highly cardiotoxic
"C#Cc1c[nH]c(=O)[nH]c1=O [GW776, 5-ethynyluracil]",Inhibition of rat liver ability to catalyse 5-FU degradation,[2]; GW776 0.5 mg kg-1 1 h before 5-FU,> 96%
same,Decrease in FBAL formation,[2]; [15],approximately 110 factor
same,Decrease in fluoride ion formation,[2]; [15],approximately 10 factor
same,Decrease of the amount of 5-FU catabolites in the presence of GW776,[2]; [15],27 factor
same,Increase of 5-FU anabolites,[2]; [15],approximately 7 factor
same,Inhibition of DPD activity in liver extracts,[8],the same extent of inhibition
same,Protection from 5-FU-induced neurotoxicity,[9],protected dogs from the neurotoxicity
same,Therapeutic index of 5-FU,[10],increases the therapeutic index of 5-FU
same,Therapeutic index of 5-FU,[11],increases the therapeutic index of 5-FU
same,Incorporation of 5-FU into RNA in tumours,[12],enhanced the incorporation
